Patent US20210008084A1, “MEVALONATE PATHWAY INHIBITOR AND PHARMACEUTICAL COMPOSITION THEREOF” (TSINGHUA UNIVERSITY, priority 2017, published 2021)

Tests used:
B16F10 cells [1] = experiment: Type I interferon and ISG gene expression by Q-PCR in B16F10; assay type: cell-based, mouse; conditions: GGOH 20 μM with Sim 10 μM or Zol 10 μM, 48 h
Procedure: Method: B16F10 cells were cultured with RPMI medium 1640+10% FBS+1% PS, and the remaining cells were cultured with DMEM+10% FBS+1% PS. 5×10^5 B16F10 and 4T1 cells were plated in 6-well plates and adhered for 12 hours, and then treated with simvastatin and zoledronic acid in the figure, and the control group was treated with normal culture medium. A part of the cells treated with the drugs were lysed with 1 ml of Trizol, and RNA was extracted. The expression of IFN-β1, IRF7, IFI44L, IL-15, MAGEB-2 and other genes was detected by LightCycler® 480 II using a Q-PCR method (see table 3 for the primer sequence). In addition, the rescue effect of GGOH on the role of simvastatin and zoledronic acid to promote the release of type I interferon (IFN-β1) and the expression of type I interferon-related stimulated genes ISGs was also tested.

B16F10 cells [2] = experiment: Phagocytosis of drug-treated B16F10 cells by bone marrow-derived DC cells; assay type: cell-based, mouse; conditions: B16F10 treated with Sim 30 μM 12 h, Zol 30 μM 24 h, Doxorubicin 10 μM 12 h; flow cytometry
Procedure: Method: C57/b6 mouse bone marrow cells were cultured in DC differentiation solution, RMPI 1640+10 ng/ml GM-CSF+10 ng/ml IL-4 containing 10% FBS for 7 days. It was ready for use when the percentage of DC cells was above 90%.
B16F10 cells were plated in 6-well plates at a density of 5×10^5. After being adhered for 12 hours, they were treated with Sim and Zol in the figure, and the control group was treated with normal culture medium. The cells treated with the drug were digested with trypsin, and the cells were obtained after centrifugation.
Cell Staining: Flow Cytometry Staining: B16F10 tumor cells were stained for 30 min in 1 ug/ml CFSE at room temperature, and washed twice with PBS after staining; BMDC cells were stained for 30 min in 1 uM CellTracker™ Red, and washed twice with PBS after staining. Cells were ready for use. Immunofluorescence staining: B16F10 cells were stained with DiD, and DC cells were stained with CFSE.
After the drug treatment, the B16F10 control group Ctrl, Sim treatment group, Zol treatment group, and DOX treatment group were co-incubated with DC cells in a 1:1 ratio for 3 hours in an incubator at 37° C., and fixed with 200 ul fluorescent antibody preservation solution (1 ml formaldehyde, 2 g glucose dissolved in 100 ml PBS) after the incubation. Flow cytometer BD FACSAria SORP was used for detection. Data was analyzed with Flojo 7.6.2 software. Cell Tracker™ Red-positive DC cells were first circled out, and the number of CellTracker™ Red-positive DC cells phagocytosing CFSE-positive tumor cells was analysized.

4T1 cells = experiment: CRT and ERp57 on tumor cell membrane after intratumoral injection, 4T1 subcutaneous model; assay type: in vivo, mouse; conditions: 4T1 tumors in BALB/c mice, harvested day 14
Procedure: In vivo experiments: 1×10^6 4 T1 cells were transplanted subcutaneously into the left hip of BALB/c mice and administered starting on the 8th day after tumor transplantation: Sim, dissolved in 75% DMSO, 2 mg/kg, intratumoral injection (i.t.), once every two days for a total of 3 times; Zol, dissolved in sterile PBS, 1 mg/kg, i.t. for once. Tumors were harvested on the 14th day after tumor transplantation. Tumor dissociation kit (mouse) was used to dissociate the tumor into single cells for staining. The staining procedure was performed according to the in vitro experiments as mentioned above.

CT26 cells = experiment: Drug-treated dying CT26 cells as tumor vaccine, re-challenge with live CT26 cells; assay type: in vivo, mouse; conditions: BALB/c mice immunized with CT26 cells treated 72 h; 30 days after transplantation; n=10
Procedure: Method: CT26 cells were treated with simvastatin or zoledronic acid. 1.5-3×10^6 dying cells were implanted subcutaneously in the right side of BALB/c mice. The control group was injected with PBS. 1×10^6 live CT26 cells were implanted subcutaneously in the left side of the mice, and tumor volume was observed and measured. Mice with tumor volumes >100 mm^3 were identified as tumor-growing mice, and the number of mice without tumor growth was recorded.
A key factor to determine the ability of drugs to induce immunogenic cell death is whether drug-treated tumor cells can be used as vaccines to protect the body against the re-challenge of the tumor cells. We treated CT26 mouse colon cancer cells with Sim and Zol for 72 h to a dying state, and BALB/c mice were immuned with these dying cells, wherein PBS was injected in the control group. After 7 days, the mice were injected with 5×10^5 live CT26 cells (re-challenge), and the tumor growth was observed after 7 days. 100% of the mice in the control group (n=10) grew tumors on day 9. After 30 days of transplantation, in mice immunized with CT26 cells treated with Sim (n=10) and Zol (n=10), the ratios of tumor-free mice were 80% and 90%, respectively, with statistical difference (FIG. 5).

B16F10 cells [3] = experiment: Apoptosis of B16F10 cells, Annexin V and PI staining, flow cytometry; assay type: cell-based, mouse; conditions: after the drug treatment
Procedure: After the drug action, the cells were digested with trypsin into a single-cell suspension, washed with PBS, and stained with Annexin V and PI according to the steps of the apoptosis kit. After staining, data was collected by a flow cytometer, and the data was analyzed by FlowJo7.6. Total RNA was extracted from cells according to the Trizol method, and the RNA was used as a template, and the RNA was reverse transcripted using a reverse transcription kit to cDNA. The obtained cDNA was used for real-time quantitative PCR. 10 μl reaction system was configured according to qPCR SYBR Green Master Mix product instructions, three replicates were set up for each sample. The experimental data was collected using a fluorogenic quantitative PCR instrument LightCycler480 of Roche, and the data was calculated according to the 2^−ΔΔc (t) method.

[4] = after at least 3 years of treatment; more than 1,800 patients; cited from earlier work
melanoma = conditions: patients progressing after Ipilimumab; cited from earlier work

Row | Molecule | DC cells that phagocytosed tumor cells (B16F10 cells [2]) | CRT expressed on the membrane surface (4T1 cells) | ERp57 expressed on the membrane surface (4T1 cells) | ratio of tumor-free mice (CT26 cells) | proportion of cells in the late stage of apoptosis (Annexin+PI+) (B16F10 cells [3]) | further results
1 | CC(C)=CCC/C(C)=C/CC/C(C)=C/CC/C(C)=C/CO [GGOH] | – | – | – | – | – | effect of GGOH on release of type I interferon and ISG by simvastatin and zoledronic acid (B16F10 cells [1]): counteract
2 | COc1cccc2c1C(=O)c1c(O)c3c(c(O)c1C2=O)C[C@@](O)(C(=O)CO)C[C@@H]3O[C@H]1C[C@H](N)[C@H](O)[C@H](C)O1 [dox, doxorubicin] | approximately 38% | – | – | – | – | –
3 | CCC(C)(C)C(=O)O[C@H]1C[C@@H](C)C=C2C=C[C@H](C)[C@H](CC[C@@H]3C[C@@H](O)CC(=O)O3)[C@H]21 [simvastatin] | 51.6% | about 1.7 times that of the control group | about 1.7 times that of the control group | 80% | about 50% | –
4 | O=P(O)(O)C(O)(Cn1ccnc1)P(=O)(O)O [zoledronic acid] | about 35% | about 1.7 times that of the control group | about 1.7 times that of the control group | 90% | about 50% | –
5 | Ipilimumab: humanized CTLA-4 antibody | – | – | – | – | – | patient survival rate [4]: approximately 20%
6 | Nivolumab: antibody targeting PD-1 | – | – | – | – | – | patients with complete remission (melanoma): 32%
